Measured values published in patent publication US6426369B1, “Oxethazaine as antimicrobial agent” (Eisai Co., Ltd., priority 1997, dated 2002).

Test system: H. pylori
Assay: Antimicrobial activity test 6: oxethazaine in combination with an antibiotic (AMPC, CAM, RXM), checker board method
Type: cell-based, Helicobacter pylori
Set-up: key to growth of H. pylori: “−” indicates the inhibited growth of H. pylori (presence of antimicrobial activity); “+” indicates the growth of H. pylori (absence of antimicrobial activity)
Details: for combined effect of oxethazaine and CAM: checker board
Source text: The effect of combined use with amoxicillin (AMPC), clarithromycin (CAM) or roxithromycin (RXM) was examined in the same manner as in antimicrobial activity test 1, using the checker board method.

## CN(C(=O)CN(CCO)CC(=O)N(C)C(C)(C)Cc1ccccc1)C(C)(C)Cc1ccccc1 [Oxethazaine, 2,2′-[(2-hydroxyethyl)amino]bis[N-(1,1-dimethyl-2-phenylethyl)-N-methylacetamide]]
89-355, oxethazaine 3.13 + CAM 0 μg/ml
  growth of H. pylori: +
89-355, oxethazaine 6.25 + CAM 0 μg/ml
  growth of H. pylori: +
89-355, oxethazaine 12.5 + CAM 0 μg/ml
  growth of H. pylori: −
89-355, oxethazaine 25 + CAM 0 μg/ml
  growth of H. pylori: −
89-355, oxethazaine 50 + CAM 0 μg/ml
  growth of H. pylori: −
89-355, oxethazaine 100 + CAM 0 μg/ml
  growth of H. pylori: −
89-357, oxethazaine 3.13 + CAM 0 μg/ml
  growth of H. pylori: +
89-357, oxethazaine 6.25 + CAM 0 μg/ml
  growth of H. pylori: +
89-357, oxethazaine 12.5 + CAM 0 μg/ml
  growth of H. pylori: +
89-357, oxethazaine 25 + CAM 0 μg/ml
  growth of H. pylori: −
89-357, oxethazaine 50 + CAM 0 μg/ml
  growth of H. pylori: −
89-357, oxethazaine 100 + CAM 0 μg/ml
  growth of H. pylori: −
90-388, oxethazaine 3.13 + CAM 0 μg/ml
  growth of H. pylori: +
90-388, oxethazaine 6.25 + CAM 0 μg/ml
  growth of H. pylori: +
90-388, oxethazaine 12.5 + CAM 0 μg/ml
  growth of H. pylori: +
90-388, oxethazaine 25 + CAM 0 μg/ml
  growth of H. pylori: −
90-388, oxethazaine 50 + CAM 0 μg/ml
  growth of H. pylori: −
90-388, oxethazaine 100 + CAM 0 μg/ml
  growth of H. pylori: −
90-390, oxethazaine 3.13 + CAM 0 μg/ml
  growth of H. pylori: +
90-390, oxethazaine 6.25 + CAM 0 μg/ml
  growth of H. pylori: +
90-390, oxethazaine 12.5 + CAM 0 μg/ml
  growth of H. pylori: +
90-390, oxethazaine 25 + CAM 0 μg/ml
  growth of H. pylori: −
90-390, oxethazaine 50 + CAM 0 μg/ml
  growth of H. pylori: −
90-390, oxethazaine 100 + CAM 0 μg/ml
  growth of H. pylori: −
EH 12, oxethazaine 3.13 + CAM 0 μg/ml
  growth of H. pylori: +
EH 12, oxethazaine 6.25 + CAM 0 μg/ml
  growth of H. pylori: +
EH 12, oxethazaine 12.5 + CAM 0 μg/ml
  growth of H. pylori: −
EH 12, oxethazaine 25 + CAM 0 μg/ml
  growth of H. pylori: −
EH 12, oxethazaine 50 + CAM 0 μg/ml
  growth of H. pylori: −
EH 12, oxethazaine 100 + CAM 0 μg/ml
  growth of H. pylori: −
EH 13, oxethazaine 3.13 + CAM 0 μg/ml
  growth of H. pylori: +
EH 13, oxethazaine 6.25 + CAM 0 μg/ml
  growth of H. pylori: +
EH 13, oxethazaine 12.5 + CAM 0 μg/ml
  growth of H. pylori: +
EH 13, oxethazaine 25 + CAM 0 μg/ml
  growth of H. pylori: −
EH 13, oxethazaine 50 + CAM 0 μg/ml
  growth of H. pylori: −
EH 13, oxethazaine 100 + CAM 0 μg/ml
  growth of H. pylori: −
Strain 90-388, oxethazaine 3.13 μg/ml, AMPC 0
  growth of H. pylori: +
Strain 90-388, oxethazaine 6.25 μg/ml, AMPC 0
  growth of H. pylori: +
Strain 90-388, oxethazaine 12.5 μg/ml, AMPC 0
  growth of H. pylori: +
Strain 90-388, oxethazaine 25 μg/ml, AMPC 0
  growth of H. pylori: −
Strain 90-388, oxethazaine 50 μg/ml, AMPC 0
  growth of H. pylori: −
Strain 90-388, oxethazaine 100 μg/ml, AMPC 0
  growth of H. pylori: −
Strain 90-390, oxethazaine 3.13 μg/ml, AMPC 0
  growth of H. pylori: +
Strain 90-390, oxethazaine 6.25 μg/ml, AMPC 0
  growth of H. pylori: +
Strain 90-390, oxethazaine 12.5 μg/ml, AMPC 0
  growth of H. pylori: +
Strain 90-390, oxethazaine 25 μg/ml, AMPC 0
  growth of H. pylori: −
Strain 90-390, oxethazaine 50 μg/ml, AMPC 0
  growth of H. pylori: −
Strain 90-390, oxethazaine 100 μg/ml, AMPC 0
  growth of H. pylori: −
Strain 90-397, CAM 0 μg/ml (oxethazaine alone), oxethazaine μg/ml by row r6-r11: 100, 50, 25, 12.5, 6.25, 3.13
  growth of H. pylori: +
Strain 90-397, CAM 0.006 μg/ml, oxethazaine μg/ml: 100, 50, 25, 12.5, 6.25, 3.13, 0
  growth of H. pylori: +
Strain 90-397, CAM 0.012 μg/ml, oxethazaine μg/ml: 100, 50, 25, 12.5, 6.25, 3.13, 0
  growth of H. pylori: +
Strain 90-397, CAM 0.024 μg/ml, oxethazaine μg/ml: 100, 50, 25, 12.5, 6.25, 3.13, 0
  growth of H. pylori: +
Strain 90-397, CAM 0.05 μg/ml, oxethazaine μg/ml: 100, 50, 25, 12.5, 6.25, 3.13, 0
  growth of H. pylori: +
Strain 90-397, CAM 0.1 μg/ml, oxethazaine μg/ml: 100, 50, 25, 12.5, 6.25, 3.13, 0
  growth of H. pylori: −
Strain 90-397, CAM 0.2 μg/ml, oxethazaine μg/ml: 100, 50, 25, 12.5, 6.25, 3.13, 0
  growth of H. pylori: −
Strain 90-397, CAM 0.4 μg/ml, oxethazaine μg/ml: 100, 50, 25, 12.5, 6.25, 3.13, 0
  growth of H. pylori: −
Strain 90-397, CAM 0.8 μg/ml, oxethazaine μg/ml: 100, 50, 25, 12.5, 6.25, 3.13, 0
  growth of H. pylori: −
Strain 90-397, CAM 1.56 μg/ml, oxethazaine μg/ml: 100, 50, 25, 12.5, 6.25, 3.13, 0
  growth of H. pylori: −
Strain 90-397, CAM 3.13 μg/ml, oxethazaine μg/ml: 100, 50, 25, 12.5, 6.25, 3.13, 0
  growth of H. pylori: −
Strain 90-397, CAM 6.25 μg/ml, oxethazaine μg/ml: 100, 50, 25, 12.5, 6.25, 3.13, 0
  growth of H. pylori: −
Strain 90-397, CAM 12.5 μg/ml, oxethazaine μg/ml: 100, 50, 25, 12.5, 6.25, 3.13, 0
  growth of H. pylori: −
Strain 90-397, CAM 25 μg/ml, oxethazaine μg/ml: 100, 50, 25, 12.5, 6.25, 3.13, 0
  growth of H. pylori: −
Strain 90-397, CAM 50 μg/ml, oxethazaine μg/ml: 100, 50, 25, 12.5, 6.25, 3.13, 0
  growth of H. pylori: −
Strain 90-397, CAM 100 μg/ml, oxethazaine μg/ml: 100, 50, 25, 12.5, 6.25, 3.13, 0
  growth of H. pylori: −
Strain 90-397
  combined effect of oxethazaine and CAM: 90-397 (synergism)
Strain 90-407, CAM 0 μg/ml (oxethazaine alone), oxethazaine μg/ml by row r14-r19: 100, 50, 25, 12.5, 6.25, 3.13
  growth of H. pylori: −
Strain 90-407, CAM 0.006 μg/ml, oxethazaine μg/ml: 100, 50, 25, 12.5, 6.25, 3.13, 0
  growth of H. pylori: −
Strain 90-407, CAM 0.012 μg/ml, oxethazaine μg/ml: 100, 50, 25, 12.5, 6.25, 3.13, 0
  growth of H. pylori: −
Strain 90-407, CAM 0.024 μg/ml, oxethazaine μg/ml: 100, 50, 25, 12.5, 6.25, 3.13, 0
  growth of H. pylori: −
Strain 90-407, CAM 0.05 μg/ml, oxethazaine μg/ml: 100, 50, 25, 12.5, 6.25, 3.13, 0
  growth of H. pylori: −
Strain 90-407, CAM 0.1 μg/ml, oxethazaine μg/ml: 100, 50, 25, 12.5, 6.25, 3.13, 0
  growth of H. pylori: −
Strain 90-407, CAM 0.2 μg/ml, oxethazaine μg/ml: 100, 50, 25, 12.5, 6.25, 3.13, 0
  growth of H. pylori: −
Strain 90-407, CAM 6.25 μg/ml, oxethazaine μg/ml: 100, 50, 25, 12.5, 6.25, 3.13, 0
  growth of H. pylori: −
Strain 90-407, CAM 12.5 μg/ml, oxethazaine μg/ml: 100, 50, 25, 12.5, 6.25, 3.13, 0
  growth of H. pylori: −
Strain 90-407, CAM 25 μg/ml, oxethazaine μg/ml: 100, 50, 25, 12.5, 6.25, 3.13, 0
  growth of H. pylori: −
Strain 90-407, CAM 50 μg/ml, oxethazaine μg/ml: 100, 50, 25, 12.5, 6.25, 3.13, 0
  growth of H. pylori: −
Strain 90-407, CAM 100 μg/ml, oxethazaine μg/ml: 100, 50, 25, 12.5, 6.25, 3.13, 0
  growth of H. pylori: −
Strain 90-407
  combined effect of oxethazaine and CAM: 90-407 (additive effect)
Strain 90-407, oxethazaine 3.13 μg/ml, AMPC 0
  growth of H. pylori: +
Strain 90-407, oxethazaine 6.25 μg/ml, AMPC 0
  growth of H. pylori: +
Strain 90-407, oxethazaine 12.5 μg/ml, AMPC 0
  growth of H. pylori: +
Strain 90-407, oxethazaine 25 μg/ml, AMPC 0
  growth of H. pylori: −
Strain 90-407, oxethazaine 50 μg/ml, AMPC 0
  growth of H. pylori: −
Strain 90-407, oxethazaine 100 μg/ml, AMPC 0
  growth of H. pylori: −
Strain 90-414, oxethazaine 3.13 μg/ml, AMPC 0
  growth of H. pylori: +
Strain 90-414, oxethazaine 6.25 μg/ml, AMPC 0
  growth of H. pylori: +
Strain 90-414, oxethazaine 12.5 μg/ml, AMPC 0
  growth of H. pylori: +
Strain 90-414, oxethazaine 25 μg/ml, AMPC 0
  growth of H. pylori: −
